# Measured values taken from PubChem BioAssay AID489041 (Sanford-Burnham Center for Chemical Genomics, 2010).
# Active and inactive are the calls of the source. No rule for the calls is given here.
# System: HEK-293T NF-kB luciferase reporter counterscreen, luminescence
# Assay: NF-kB reporter inhibition in HEK-293T, dose response, counter-screen for T-cell antigen receptor NF-kB inhibitors, HEK-293T cells, luminescence (AID 489041)
row,Compound,IC50
1,COc1cc2c(c(OC)c1OC)-c1ccc(OC)c(=O)cc1[C@@H](N(C)CC#CCO)CC2,0.56 µM
2,CCCCC(=O)NC(c1ccc(Cl)cc1)c1ccc2cccnc2c1O (configuration not stated),> 80 µM (inactive)
3,COc1ccccc1C(=O)N(CCC1CCCN1C)c1nc2ccccc2s1 (configuration not stated),18.6 µM
4,COC(=O)c1nn(-c2ccc3c(c2)CCN3C(C)=O)cc1O,3.87 µM
5,Cc1noc(C)c1COc1cccc(C(=O)OCC(=O)N2CC(=O)Nc3ccccc32)c1,24.9 µM (inactive)
6,COc1ccc(N(C(=O)c2ccccc2C)S(=O)(=O)c2cccs2)cc1,> 80 µM (inactive)
7,O[C@@H]1[C@@H](O)C=C2CCN3Cc4cc5c(cc4[C@H]1C23)OCO5 (some centres not stated),1.97 µM
8,CCOC(=O)c1[nH]c(C)c(C(=O)Nc2ccccc2C)c1C,67.3 µM (inactive)
9,Cc1ccc2nc(SCC(=O)Nc3cc(C(F)(F)F)ccc3N3CCOCC3)[nH]c2c1,25.6 µM (inactive)
10,CCc1ccc(S(=O)(=O)/N=C2\C=C(Nc3ccc(O)cc3)C(=O)c3ccccc32)cc1,1.1 µM
11,Cc1cc(/C=C2\Sc3ccccc3N2C)cc(C)[n+]1CC1CCCO1 (configuration not stated),3.74 µM
12,O=C(c1ccc(Br)cc1)c1cc([N+](=O)[O-])ccc1N1CCOCC1,10.8 µM
13,CCCc1cc(C(=O)Nc2cc(C)ccc2O)no1,> 80 µM (inactive)
14,COc1ccc(NC(=O)/C(Cl)=C(/Cl)S(=O)Cc2ccccc2Cl)cn1 (configuration not stated),3.95 µM
15,CCOC(=O)C1CCN(S(=O)(=O)c2c(Cl)ccc3nonc23)CC1,10.7 µM
16,COc1cc2c(c(OC)c1OC)-c1ccc(OC)c(=O)cc1[C@@H](NC(C)=O)CC2,< 0.16 µM
17,COc1ccccc1NC(=O)C1=C(C)Nc2nc3ccccc3n2C1c1cccs1 (configuration not stated),13.6 µM
18,Oc1ccccc1N=Nc1nc(-c2ccccc2)c(-c2ccccc2)[nH]1,2.84 µM
19,CCOc1ccc(Br)cc1C1=CC(=O)C[C@H](c2ccc(OC)cc2)C1,13.7 µM
20,COc1cc([C@@H]2c3cc4c(cc3[C@@H](OC)[C@H]3COC(=O)[C@H]23)OCO4)cc(OC)c1O,> 80 µM (inactive)
21,COc1cccc(/C=N/Nc2ncnc3scc(-c4ccccc4)c23)c1O,4.6 µM
22,O=C(COc1ccc2c(-c3ccccc3)cc(=O)oc2c1)Nc1cccnc1,0.26 µM
23,N=c1ccn(CC(=O)c2ccc(-c3ccccc3)cc2)cc1,5.16 µM

row,Compound,IC50
1,CCOc1cc(C(=O)N/N=C/C(Br)=C/c2ccccc2)cc(OCC)c1OCC,1.11 µM
2,CCCOc1ccccc1C1CC(=O)Nc2cc3c(cc21)OCO3 (configuration not stated),2.25 µM
3,COc1cccc(N2CCN(c3ncnc4c3cnn4-c3ccc(C)cc3C)CC2)c1,2.07 µM
4,COc1cccc(N/C(N)=N/c2nc(CSc3ccccn3)cc(=O)[nH]2)c1,5.9 µM
5,Cc1nc2ccccc2c2c1CC(C(C)(Cl)Br)O2 (configuration not stated),2.9 µM
6,O=C1/C(=C/c2ccc(N3CCOCC3)o2)SC(=Nc2ccccc2)N1CCc1c[nH]c2ccccc12,13.8 µM
7,CCOC(=O)c1[nH]c(C)c(C(=O)Nc2ccc(C)cc2C)c1C,46.1 µM (inactive)
8,COc1cccc(/C=N/Nc2ccc(C(=O)O)cc2)c1O,0.41 µM
9,COc1cccc2sc(Nc3nnc(-c4ccccc4Cl)o3)nc12,> 80 µM (inactive)
10,COc1cc2c(c(OC)c1OC)-c1ccc(O)cc1[C@@H](NC(C)=O)CC2,> 80 µM (inactive)
11,CC(=O)O[C@H]1C(=O)[C@]2(C)[C@H]([C@H](OC(=O)c3ccccc3)[C@]3(O)C[C@H](OC(=O)[C@H](O)[C@@H](NC(=O)c4ccccc4)c4ccccc4)C(C)=C1C3(C)C)[C@]1(OC(C)=O)CO[C@@H]1C[C@@H]2O,76.2 µM (inactive)
12,NC(=O)CC(NC(=O)c1ccc(Br)cc1)c1ccc(N2CCCCCC2)c([N+](=O)[O-])c1 (configuration not stated),29.3 µM (inactive)
13,O=C1C=C(c2ccc3ncccc3c2)C[C@@H](c2ccc3c(c2)OCO3)C1,11.1 µM
14,CCOC(=O)C(C)Oc1cccc2c(=O)n(CC(=O)NCc3ccco3)ccc12 (configuration not stated),7.92 µM
15,C/C=C(\C)C(=O)N[C@@H](c1ccccc1)[C@@H](O)C(=O)O[C@H]1C[C@@]2(O)[C@@H](OC(=O)c3ccccc3)C3[C@](C)(C(=O)[C@H](O)C(=C1C)C2(C)C)[C@@H](O)C[C@H]1OC[C@@]31OC(C)=O (some centres not stated),> 80 µM (inactive)
16,CCOC(=O)C(C)Oc1cccc2c(=O)n(CC(=O)NCc3ccc4c(c3)OCO4)ccc12 (configuration not stated),2.23 µM
17,COc1cccc(-c2cc(=O)c3cc(NC(=O)c4ccc(N(C)C)cc4)ccc3[nH]2)c1,> 80 µM (inactive)
18,COc1cccc(-c2cc(=O)c3cc(NC(=O)c4ccccc4)ccc3[nH]2)c1,> 80 µM (inactive)
19,CCCCCCCCCn1c2c(c(=N)c3c1CCC3)CCC2,0.98 µM
20,Cn1nc(C(C)(C)C)cc1C(=O)NCc1cc(F)cc2c1OCOC2,2.47 µM
21,CCOc1ccc(N(CC(=O)Nc2ccccc2C)S(=O)(=O)c2c(C)noc2C)cc1,17 µM
22,COc1cc(OC)c(/C=C2\C(=O)Nc3ccccc32)c(OC)c1,6.26 µM
23,Cc1cc(C)cc(NS(=O)(=O)c2ccc(-c3cnc(C4CC4)o3)cc2)c1,1.8 µM

row,Compound,IC50
1,COc1ccc(OC)c(NS(=O)(=O)c2ccc(N3CCCC3=O)cc2)c1,4.36 µM
2,Cc1ccc2c(c1)C=CC(C#N)N2C(=O)c1ccccc1 (configuration not stated),29.1 µM (inactive)
3,COC(=O)Nc1ccc(S(=O)(=O)N2c3ccccc3CCC2C)cc1 (configuration not stated),13.1 µM
4,COc1cc(-c2noc(C)c2/C=C/c2ccc(OC(C)=O)cc2)cc(OC)c1OC,2.78 µM
5,CCCCCCCOc1ccc(OC(=O)c2ccncc2)cc1,> 80 µM (inactive)
6,Cc1ccc(S(=O)(=O)Nc2cccc(-c3ccc4nncn4n3)c2)cc1,18.4 µM
7,COc1cc(C(=O)Nc2ccc3c(c2)CCN3C(C)=O)cc(OC)c1OC,4.83 µM
8,Cc1cc(NC(=O)COC(=O)c2ccc(S(=O)(=O)N3CCCc4ccccc43)cc2)no1,28.3 µM (inactive)
9,CCOc1cccc(/C=N/Nc2ccc(S(=O)(=O)N(CC)CC)cn2)c1O,0.31 µM
10,CCO[C@@H]1OC(C(=O)NCc2nc3ccccc3[nH]2)=C[C@H](C(C)(C)C)[C@H]1CCCO,1.37 µM
11,Cc1ccccc1NC1=C/C(=N\S(=O)(=O)c2cccs2)c2ccccc2C1=O,0.41 µM
12,CCN1/C(=C/c2ccc3cc(C)ccc3[n+]2CC)Sc2ccc3sccc3c21,63 µM (inactive)
13,O=C(Nc1ccc(S(=O)(=O)N2CCOCC2)cc1)c1ccc(CN2CCc3ccccc3C2)cc1,1.29 µM
14,CC(=O)O[C@H]1C(=O)[C@@]2(C)C([C@H](OC(=O)c3ccccc3)[C@]3(O)C[C@H](OC(=O)[C@H](O)[C@@H](NC(=O)Cc4ccccc4)c4ccccc4)C(C)=C1C3(C)C)[C@]1(OC(C)=O)CO[C@@H]1C[C@@H]2O (some centres not stated),45.6 µM (inactive)
15,Cc1ccsc1/C=N/NC(=O)c1cc(-c2ccncc2)nc2ccccc12,2.94 µM
16,Cc1ccccc1NS(=O)(=O)c1ccc(N2CCCC2=O)cc1,42.2 µM (inactive)
17,C[C@@H]1C=CC(=O)O[C@@H]1c1ccc(Cl)cc1,34 µM (inactive)
18,C=CCNC(=S)N/N=C(\C)c1ccccn1,> 80 µM (inactive)
19,O=c1cc(-c2ccccc2)[nH]c2ccccc12,15.5 µM
20,CC1(C)C[C@H]2C=C(C=O)[C@]3(C=O)C[C@]3(C)[C@H]2C1,31.1 µM (inactive)
21,CCCC(=O)NC(c1ccc(C(C)C)cc1)c1ccc2cccnc2c1O (configuration not stated),0.66 µM
22,O=C(CNC(=O)c1ccco1)N=Nc1c(O)n(CCc2ccccc2)c2ccccc12,5.17 µM
23,Cc1cc(C)cc(C(=O)N2CC(=O)Nc3ccccc32)c1,4.64 µM

row,Compound,IC50
1,COc1ccc(OC)c(-c2nnc3n2N=C(c2ccc(OC)c(OC)c2)CS3)c1,0.65 µM
2,COc1cc([C@@H]2c3cc4c(cc3[C@H](O)[C@H]3COC(=O)[C@H]23)OCO4)cc(OC)c1OC,< 0.16 µM
3,Cc1ccc(C(=O)c2cc([N+](=O)[O-])ccc2N2CCCCC2)c(C)c1,7.17 µM
4,CC(C)Oc1ccccc1C1CC(=O)Nc2cc3c(cc21)OCCO3 (configuration not stated),2.69 µM
5,CCN(CC)c1ccc(/C=N/NC(=O)c2cccc(S(=O)(=O)Nc3ccccc3OC)c2)c(O)c1,0.23 µM
6,CSC1=NC(C(Cl)(Cl)Cl)N=C(c2ccc(C)cc2)N1 (configuration not stated),12.5 µM
7,CC(C)CCOc1cccc(OCC(=O)Nc2ccncc2)c1,1.97 µM
8,O=c1cc(-c2ccccc2)[nH]c2cc(Cl)ccc12,19.1 µM
9,COc1ccccc1NC(=O)c1cnc(Nc2ccccc2OC)c2ccccc12,> 80 µM (inactive)
10,CC(=O)c1ccc(Oc2cc(C)nc(-n3nc(C)cc3C)n2)cc1,14.6 µM
11,Cc1csc2ncnc(NC3CCN(Cc4ccccc4)CC3)c12,2.22 µM
12,CC(Oc1ccc(Cl)cc1Cl)c1nc(-c2ccc(NC(=O)c3ccncc3)cc2)no1 (configuration not stated),2.39 µM
13,COc1ccc(-n2nnnc2-c2ccccc2)cc1,> 80 µM (inactive)
14,O=S(=O)(Nc1ccc(F)cc1Cl)c1ccc(-c2cnc(C3CC3)o2)cc1,1.78 µM
15,CSc1ccc(COC(=O)c2cc([N+](=O)[O-])ccc2N2CCOCC2)cc1,1.7 µM
16,CCOc1ccccc1NC(=O)Cn1nnc(C(=O)NCc2cccs2)c1N,2.87 µM
17,Cc1ccc(C(=O)c2cc([N+](=O)[O-])ccc2N2CCCCC2)cc1C,6.16 µM
18,CCCC[C@@H](C)C[C@@H](C)C(=O)N(C)[C@@H](CC(C)C)C(=O)N[C@H](C(=O)N(C)[C@H](C(=O)N1C[C@@H](O)C[C@H]1C(=O)N1C(=O)C=C[C@@H]1C)C(C)C)C(C)OC(C)=O (some centres not stated),< 0.16 µM
19,COc1ccc(NS(=O)(=O)c2cc(-c3cnc(C4CC4)o3)ccc2C)cc1,9.37 µM
20,Cc1ccc(C(=O)Nc2ncc(Cc3ccc(SC(F)F)cc3)s2)cc1,> 80 µM (inactive)
21,CCOC(=O)N=Nc1c2ccccc2c2nc3no[nH]c3nc12,0.52 µM
22,COc1ccc(Cn2c(SCc3ccc(C)cc3)nc3cc(OC)c(OC)cc3c2=N)cc1Cl,> 80 µM (inactive)
23,O=C1c2cccc3cc([N+](=O)[O-])cc(c23)C(=O)N1CCN1CCCC1,> 80 µM (inactive)
